# Source: patent publication US7671061B2, “Methods and compositions for treating pain” (Hydra Biosciences, Inc., priority 2005, dated 2010)
# Target: T1, hTRPA1 (Homo sapiens, UniProt O75762, K186N)
# T1 construct: expressed in transfected cells; host or cells: HEK293/TREx (Invitrogen), induced with tetracycline
# Experiment: High throughput Ca2+ fluorescence (Fluo4) assay, AITC stimulation
# Type: cell-based
# Settings: Table 1; read-out: hTRPA1 Fluo4 IC50
# Description: The assay depended on detection of the rise in intracellular Ca^2+ concentration ([Ca^2+]i) following channel activation in cells inducibly expressing the TRPA1 channel. Ca^2+ rise was quantified with the use of fluorescent Ca^2+ indicators that were loaded into cells and thereafter indicated the [Ca^2+]i. Ca^2+ influx followed activation of the TRPA1 channel. Compounds inhibiting the [Ca^2+]i rise were considered hits for further investigation.
# These cells were maintained in the growth medium recommended by the manufacturer supplemented with 100 μg/ml hygromycin to promote retention of the TRPA1 construct. After growing to near confluency, cells were plated at a density of ˜25,000 cells/well in 384 well CellBind plates (Corning) in the presence of 1 μg/ml tetracycline, and allowed to grow for 20-30 hrs. A nearly confluent monolayer resulted. Cells were then loaded with Ca^2+ dye: Fura-2/AM or Fluo4/AM was added to the wells to a final concentration of 2 μM or 1 μM, respectively, and incubated for 80 min or 60 min, respectively, at room temperature. […] Frames were acquired at a rate of 0.2 Hz. During the assay, the plates were continuously […], with pipette mixing of wells following addition of each reagent. For the screening assay, 13 μl of a diluted stock (at 50 μM) was added to each well for 2 minutes following the collection of a short (4 frame) baseline. […] Data was collected for ˜3 minutes following addition of AITC, where the fluorescent intensity (for Fluo4) and the F340/F380 ratio (for Fura-2) were proportional to the [Ca^2+]i. Negative controls consisted of HEK293/TREx TRPA1 cells exposed to AITC, but no compound. […] These controls defined a screening window, and “hits” were defined as those compounds inhibiting the fluorescence response by at least 40%. IC50 values were determined for compounds defined as “hits.” The Fluo4 cell-based fluorescence assay was used to determine the intracellular Ca^2+ concentration in the presence of varying drug concentration. […] Compounds were tested in triplicate at all concentrations. Standard software was used to fit IC50 curves.
# T1 sequence (O75762 whole entry K186N): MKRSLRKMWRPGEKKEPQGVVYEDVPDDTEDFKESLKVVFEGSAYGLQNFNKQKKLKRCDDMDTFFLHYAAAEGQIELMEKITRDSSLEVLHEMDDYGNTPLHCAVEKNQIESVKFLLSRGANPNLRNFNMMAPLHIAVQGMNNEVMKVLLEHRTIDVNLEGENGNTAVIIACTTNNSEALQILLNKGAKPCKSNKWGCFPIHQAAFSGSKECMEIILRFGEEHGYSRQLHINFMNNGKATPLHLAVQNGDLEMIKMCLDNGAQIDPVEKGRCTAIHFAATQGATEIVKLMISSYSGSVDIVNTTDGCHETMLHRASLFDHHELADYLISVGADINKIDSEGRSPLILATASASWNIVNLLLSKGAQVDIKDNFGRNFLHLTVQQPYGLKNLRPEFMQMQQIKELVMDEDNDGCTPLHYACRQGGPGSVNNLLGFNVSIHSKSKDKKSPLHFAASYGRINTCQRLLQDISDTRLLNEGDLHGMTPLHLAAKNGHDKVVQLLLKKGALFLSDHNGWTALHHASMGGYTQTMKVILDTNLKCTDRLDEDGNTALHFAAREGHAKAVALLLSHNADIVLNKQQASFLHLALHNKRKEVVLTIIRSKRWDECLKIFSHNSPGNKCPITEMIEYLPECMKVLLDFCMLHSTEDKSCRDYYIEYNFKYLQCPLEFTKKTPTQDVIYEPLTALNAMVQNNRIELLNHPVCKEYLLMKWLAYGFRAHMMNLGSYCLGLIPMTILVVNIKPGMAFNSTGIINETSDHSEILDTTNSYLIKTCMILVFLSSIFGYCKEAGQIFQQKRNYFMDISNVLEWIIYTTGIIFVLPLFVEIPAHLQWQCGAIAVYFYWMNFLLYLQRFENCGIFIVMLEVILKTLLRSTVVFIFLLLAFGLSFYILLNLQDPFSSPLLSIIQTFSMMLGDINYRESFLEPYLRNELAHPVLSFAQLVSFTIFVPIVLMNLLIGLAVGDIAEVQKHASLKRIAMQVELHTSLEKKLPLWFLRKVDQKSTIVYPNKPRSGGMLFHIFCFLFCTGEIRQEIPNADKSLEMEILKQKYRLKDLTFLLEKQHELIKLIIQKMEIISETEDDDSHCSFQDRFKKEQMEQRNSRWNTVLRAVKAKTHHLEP
row,IC50 [µM],Compound
1,> 10,CC1=C(C(=O)N2CCOCC2)C(c2ccc(Cl)cc2)NC(=O)N1 (stereo not drawn)
2,≤ 5,CC1=C(C(=O)N2CCOCC2)C(c2cccc(F)c2)NC(=O)N1 (stereo not drawn)
3,> 10,CC1=C(C(=O)OC(C)C)C(c2c(O)ccc3ccccc23)NC(=S)N1 (stereo not drawn)
4,≤ 5,CCOC(=O)C1=C(c2ccccc2)NC(=S)NC1c1ccc(SC)cc1 (stereo not drawn)
5,> 10,CCOC(=O)C1=C(c2ccccc2)NC(=S)NC1c1cccc(OC)c1OC (stereo not drawn)
6,> 10,CCOC(=O)C1=C(c2ccccc2)NC(=S)NC1c1ccc(OCC)cc1 (stereo not drawn)
7,> 10,COc1cccc(C2NC(=S)NC(C)=C2C(=O)OCc2ccccc2)c1 (stereo not drawn)
8,> 10,CCOC(=O)C1=C(c2ccccc2)NC(=S)NC1c1ccccc1OC (stereo not drawn)
9,> 10,CCOC(=O)C1=C(c2ccccc2)NC(=O)NC1c1ccccc1F (stereo not drawn)
10,> 10,CC1=C(C(=O)OC(C)(C)C)C(c2ccc(Br)cc2)NC(=O)N1 (stereo not drawn)
11,> 10,CC1=C(C(=O)OC(C)(C)C)C(c2cccc(Cl)c2)NC(=O)N1 (stereo not drawn)
12,> 10,COC(=O)C1=C(C)NC(=S)NC1c1ccccc1OC(C)C (stereo not drawn)
13,> 10,CC1=C(C(=O)OC2CCCCCC2)C(c2cccc(C)c2)NC(=O)N1 (stereo not drawn)
14,> 10,CCC(C)OC(=O)C1=C(C)NC(=O)NC1c1ccc(F)c(Br)c1 (stereo not drawn)
15,> 10,CC1=C(C(=O)OC(C)C)C(c2ccc(F)c(Br)c2)NC(=O)N1 (stereo not drawn)
16,> 10,CCCOC(=O)C1=C(C)NC(=O)NC1c1ccccc1Br (stereo not drawn)
17,> 10,CCCC1=C(C(=O)OCC)C(c2ccc([N+](=O)[O-])cc2)NC(=O)N1C (stereo not drawn)
18,> 10,COC(=O)C1=C(C)NC(=O)NC1c1ccc(F)c(Br)c1 (stereo not drawn)
19,> 10,CCCC1=C(C(=O)OCC)C(c2ccc(C(F)(F)F)cc2)NC(=O)N1C (stereo not drawn)
20,> 10,CC1=C(C(=O)OC2CCCC2)C(c2ccccc2Br)NC(=O)N1 (stereo not drawn)
21,> 10,CC1=C(C(=O)OC(C)C)C(c2ccc(C(C)(C)C)cc2)NC(=O)N1 (stereo not drawn)
22,> 10,CC1=C(C(=O)OC(C)C)C(c2c(Cl)cccc2Cl)NC(=O)N1 (stereo not drawn)
23,> 10,CC1=C(C(=O)OC(C)C)C(c2c(F)cccc2Cl)NC(=O)N1 (stereo not drawn)
24,> 10,COC(=O)C1=C(C)N(C)C(=O)NC1c1cccc(C)c1 (stereo not drawn)

row,IC50 [µM],Compound
1,> 10,COC(=O)C1=C(C)N(C)C(=O)NC1c1cccc(Cl)c1Cl (stereo not drawn)
2,> 10,C=CCOC(=O)C1=C(C)NC(=O)NC1c1c(Cl)cccc1Cl (stereo not drawn)
3,> 10,C=CCOC(=O)C1=C(C)NC(=O)NC1c1ccc(C(C)(C)C)cc1 (stereo not drawn)
4,> 10,CC1=C(C(=O)OCc2ccccc2)C(c2ccc(C(C)C)cc2)NC(=O)N1 (stereo not drawn)
5,> 10,C=CCOC(=O)C1=C(C)NC(=O)NC1c1c(F)cccc1Cl (stereo not drawn)
6,> 10,CC1=C(C(=O)OCc2ccccc2)C(c2c(F)cccc2Cl)NC(=O)N1 (stereo not drawn)
7,≥ 30,COC(=O)C1=C(C)NC(=S)NC1c1ccccc1C (stereo not drawn)
8,> 10,CC1=C(C(=O)N(C)C)C(c2ccccc2)NC(=S)N1 (stereo not drawn)
9,> 10,COc1cccc(C2NC(=S)NC(C)=C2C(=O)N(C)C)c1OC (stereo not drawn)
10,> 10,COc1cc(OC)c(C2NC(=S)NC(C)=C2C(=O)N(C)C)cc1Br (stereo not drawn)
11,> 10,COc1cc(Br)cc(C2NC(=S)NC(C)=C2C(=O)N(C)C)c1OC (stereo not drawn)
12,> 10,CC1=C(C(=O)N(C)C)C(c2c(F)cccc2Cl)NC(=S)N1 (stereo not drawn)
13,> 10,COc1cc2c(cc1C1NC(=S)NC(C)=C1C(=O)N(C)C)CCCC2 (stereo not drawn)
14,> 10,CC1=C(C(=O)N(C)C)C(c2ccccc2F)NC(=S)N1 (stereo not drawn)
15,> 10,CC1=C(C(=O)N(C)C)C(c2ccc(C)cc2)NC(=S)N1 (stereo not drawn)
16,≤ 10,CC1=C(C(=O)OCC(C)C)C(c2c(F)cccc2Cl)NC(=O)N1C (stereo not drawn)
17,> 10,COCCOC(=O)C1=C(C)NC(=S)NC1c1ccc(C(C)C)cc1 (stereo not drawn)
18,> 10,COC(=O)C1=C(C)N(C)C(=S)NC1c1ccccc1OC (stereo not drawn)
19,> 10,CCN(CC)C(=O)C1=C(C)NC(=S)NC1c1ccccc1Cl (stereo not drawn)
20,> 10,CCN(CC)C(=O)C1=C(C)NC(=S)NC1c1ccc(OC)cc1 (stereo not drawn)
21,> 10,CCN(CC)C(=O)C1=C(C)NC(=S)NC1c1cc(C)c(OC)cc1C (stereo not drawn)
22,> 10,CCN(CC)C(=O)C1=C(C)NC(=S)NC1c1cc(Br)cc(OC)c1OC (stereo not drawn)
23,> 10,CCN(CC)C(=O)C1=C(C)NC(=S)NC1c1ccc(OC)cc1OC (stereo not drawn)

row,Compound,IC50 [µM]
1,CCOC(=O)C1=C(C)NC(=S)NC1c1ccc(O)cc1 (stereo not drawn),> 10
